Values joined by “and” are separate entries in the source; they are usually repeats but may differ in a detail not shown here. Identical values can stand only once. Toxic doses and inconclusive results are not listed.
Tested on: BDF1 mice, P388 leukemia ip, median survival T/C
Experiment: NCI In Vivo Anticancer Drug Screen. Data for tumor model P388 Leukemia (intraperitoneal) in B6D2F1 (BDF1) mice
Conditions: endpoint: median survival time, higher = longer survival
Summary of the method: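 T/C = treated-group survival ÷ vehicle-control survival; tumour transplanted into mice before dosing.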

[1] = dose: 200.0 mg/kg/injection, schedule: Q01DX009 (ip), vehicle: saline with Tween-80
[2] = dose: 400.0 mg/kg/injection, schedule: Q04DX003 (ip), vehicle: saline with Tween-80
[3] = dose: 50.0 mg/kg/injection, schedule: Q01DX009 (ip), vehicle: Klucel (hydroxypropylcellulose) (HPC)
[4] = dose: 200.0 mg/kg/injection, schedule: Q01DX009 (ip), vehicle: Klucel (hydroxypropylcellulose) (HPC)

Structure (SMILES): O=CC(S)CO (centres undefined)
- T/C (dose: 12.5 mg/kg/injection, schedule: Q01DX010 (ip), vehicle: carboxymethylcellulose (CMC)): 122 % of control
- T/C (dose: 25.0 mg/kg/injection, schedule: Q01DX010 (ip), vehicle: carboxymethylcellulose (CMC)): 122 % of control
- T/C (dose: 50.0 mg/kg/injection, schedule: Q01DX010 (ip), vehicle: carboxymethylcellulose (CMC)): 166 % of control
- T/C (dose: 100.0 mg/kg/injection, schedule: Q01DX010 (ip), vehicle: carboxymethylcellulose (CMC)): 166 % of control

Structure (SMILES): Oc1ccc(Nc2ccnc3cc(Cl)ccc23)cc1CN(CCCl)CCCl
- T/C (dose: 1.25 mg/kg/injection, schedule: Q01DX009 (ip), vehicle: saline): 177 % of control
- T/C (dose: 2.5 mg/kg/injection, schedule: Q01DX009 (ip), vehicle: saline): 194 % of control
- T/C (dose: 3.3 mg/kg/injection, schedule: Q04DX003 (ip), vehicle: saline): 163 % of control
- T/C (dose: 5.0 mg/kg/injection, schedule: Q01DX009 (ip), vehicle: saline): 150 % of control
- T/C (dose: 5.0 mg/kg/injection, schedule: Q04DX003 (ip), vehicle: saline): 163 % of control
- T/C (dose: 10.0 mg/kg/injection, schedule: Q04DX003 (ip), vehicle: saline with Tween-80): 160 % of control

Structure (SMILES): Cc1cc(=O)[nH]c(N(CCO)CCO)n1
- T/C (dose: 100.0 mg/kg/injection, schedule: Q01DX009 (ip), vehicle: saline with Tween-80): 100 % of control
- T/C (dose: 100.0 mg/kg/injection, schedule: Q04DX003 (ip), vehicle: saline with Tween-80): 100 % of control
- T/C [1]: 96 % of control
- T/C (dose: 200.0 mg/kg/injection, schedule: Q04DX003 (ip), vehicle: saline with Tween-80): 95 % of control
- T/C (dose: 400.0 mg/kg/injection, schedule: Q01DX009 (ip), vehicle: saline with Tween-80): 88 % of control
- T/C [2]: 90 % of control

Structure (SMILES): CCC(=O)NC1=C(N2CC2)C(=O)C(NC(=O)CC)=C(N2CC2)C1=O
- T/C (dose: 1.0 mg/kg/injection, schedule: Q01DX009 (ip), vehicle: saline): 171 % of control and 185 % of control
- T/C (dose: 2.0 mg/kg/injection, schedule: Q01DX009 (ip), vehicle: saline): 225 % of control and 228 % of control
- T/C (dose: 4.0 mg/kg/injection, schedule: Q01DX009 (ip), vehicle: saline): 90 % of control and 119 % of control

Structure (SMILES): C(=Nc1ccc(/C=C\c2ccnc3ccccc23)cc1)Nc1ccc(/C=C\c2ccnc3ccccc23)cc1
- T/C (dose: 12.5 mg/kg/injection, schedule: Q01DX009 (ip), vehicle: saline with Tween-80): 100 % of control
- T/C (dose: 25.0 mg/kg/injection, schedule: Q01DX009 (ip), vehicle: saline with Tween-80): 107 % of control
- T/C (dose: 50.0 mg/kg/injection, schedule: Q01DX009 (ip), vehicle: saline with Tween-80): 100 % of control
- T/C [1]: 97 % of control

Structure (SMILES): COc1cc2ccc3c(c2cc1OC)C=NCC3
- T/C (dose: 1.56 mg/kg/injection, schedule: Q01DX009 (ip), vehicle: saline): 100 % of control
- T/C (dose: 1.56 mg/kg/injection, schedule: Q04DX003 (ip), vehicle: saline): 95 % of control
- T/C (dose: 3.13 mg/kg/injection, schedule: Q01DX009 (ip), vehicle: saline): 110 % of control
- T/C (dose: 3.13 mg/kg/injection, schedule: Q04DX003 (ip), vehicle: saline): 100 % of control
- T/C (dose: 6.25 mg/kg/injection, schedule: Q01DX009 (ip), vehicle: saline): 110 % of control
- T/C (dose: 6.25 mg/kg/injection, schedule: Q04DX003 (ip), vehicle: saline): 104 % of control

Structure (SMILES): [NH2-].[NH2-].[NH2-].[NH2-].[NH2-].[NH2-].[Ni]
- T/C (dose: 6.25 mg/kg/injection, schedule: Q01DX001 (ip), vehicle: saline): 99 % of control
- T/C (dose: 12.5 mg/kg/injection, schedule: Q01DX001 (ip), vehicle: saline): 103 % of control

Structure (SMILES): CN(C)P(=O)(N(C)C)N(C)C (tested in a mixture with another compound)
- T/C [3]: 98 % of control
- T/C (dose: 100.0 mg/kg/injection, schedule: Q01DX009 (ip), vehicle: Klucel (hydroxypropylcellulose) (HPC)): 105 % of control
- T/C [4]: 105 % of control

Structure (SMILES): Cc1cc(N(CCCl)CCCl)ccc1C=Nc1ccc(F)cc1
- T/C [2]: 150 % of control
- T/C (dose: 600.0 mg/kg/injection, schedule: Q04DX003 (ip), vehicle: saline with Tween-80): 179 % of control

Structure (SMILES): Nc1ncc(CNc2ccc(C(=O)NC(CCC(=O)O)C(=O)O)cc2)c(N)n1 (centres undefined)
- T/C [3]: 89 % of control and 115 % of control
- T/C [4]: 150 % of control

Structure (SMILES): S=c1nc[nH]c2nc[nH]c12.[Ag]
- T/C (dose: 100.0 mg/kg/injection, schedule: Q01DX009 (ip), vehicle: saline): 100 % of control
- T/C (dose: 200.0 mg/kg/injection, schedule: Q01DX009 (ip), vehicle: saline): 108 % of control
- T/C (dose: 400.0 mg/kg/injection, schedule: Q01DX009 (ip), vehicle: saline): 87 % of control

Structure (SMILES): CC1(C)COC(c2ccc(CC(Cc3ccc(C4(C(C)(C)C)OCC(C)(C)CO4)cc3)C(=O)O)cc2)(C(C)(C)C)OC1
- T/C (dose: 50.0 mg/kg/injection, schedule: Q01DX005 (ip), vehicle: saline with Tween-80): 86 % of control
- T/C (dose: 100.0 mg/kg/injection, schedule: Q01DX005 (ip), vehicle: saline with Tween-80): 93 % of control
- T/C (dose: 200.0 mg/kg/injection, schedule: Q01DX005 (ip), vehicle: saline with Tween-80): 96 % of control
